Measured values from publication PMC8170916, “Sublingual AKBA Exerts Antidepressant Effects in the Aβ-Treated Mouse Model” (Biomolecules, 2021).

Key:
Aβ-treated mice [1] = test: Splash test in Aβ-treated mice; format: in vivo; details: mice 7 days after icv Aβ 4 µM; sublingual AKBA 5 mg/kg 30 min before testing; Aβ vs SHAM, Aβ+AKBA vs Aβ
Aβ-treated mice [2] = test: Tail suspension test in Aβ-treated mice; format: in vivo; details: mice 7 days after icv Aβ 4 µM, sublingual AKBA 5 mg/kg 30 min before, Aβ vs SHAM
noradrenaline (NA) = test: Noradrenaline quantification in PFC and HIPP by HPLC with electrochemical detection; format: in vivo; details: HIPP, mice 7 days after icv Aβ 4 µM; sublingual AKBA 5 mg/kg 30 min earlier
Method: (§1) All behavioral experiments were conducted at 5 or 30 min after sublingual administrations of AKBA or vehicle in either SHAM or Aβ-treated mice. Based upon behavioral outcomes observed, neurochemical and biochemical quantifications were performed 30 min after AKBA or vehicle administration in either SHAM or Aβ-treated mice.
(§2) Anesthetized animals were sacrificed by cervical dislocation. Brains were immediately removed and kept on ice for dissection of PFC and HIPP, according to the atlas of Paxinos and Franklin. Tissues were frozen and stored at −80 °C until analyses were carried out. Samples (PFC and HIPP) were homogenized (1:10 w/v) at 4 °C using a PBS buffer containing a 1:100 protease and phosphatase inhibitor cocktail (HALT inhibitors, Thermo Fisher Scientific, Cleveland, OH, USA) for biochemical analyses or perchloric acid 0.1 M for neurochemical analyses. Homogenates were centrifuged at 13,000× g at 4 °C for 20 min, and supernatants were used for further determinations.
(§3) 5-HT, noradrenaline (NA), and KYN levels were measured in the PFC and HIPP of mice by HPLC coupled with an electrochemical detector (Ultimate ECD, Thermo Scientific Dionex, Milan, Italy) as already reported. Separation was performed by a LC18 reverse phase column (Kinetex, 150 mm × 3.0 mm, ODS 5 μm; Phenomenex, Castel Maggiore-Bologna, Italy). The detection was accomplished by a thin layer amperometric cell (Thermo Scientific Dionex, Milan, Italy) with a 5 mm diameter glassy carbon electrode at a working potential of 400 mV (5-HT and NA) or 0.750 mV (KYN) vs. Pd. The mobile phase consisted of an aqueous buffer containing 75 mM NaH2PO4, 1.7 mM octane sulfonic acid, 0.3 mM EDTA, and acetonitrile 10%, buffered at pH 3.0. […] GLU concentrations were determined by HPLC coupled with fluorescence detection (emission length 460 nm; excitation length 340 nm), as previously published. […] Results were analyzed by Borwin software (version 1.50; Jasco, Cremella, Italy) and the amino acid concentration was expressed as µM. All data were normalized for total area weight and were expressed as concentration/mg of tissue.

glutamate (GLU) = test: Glutamate quantification in PFC and HIPP by HPLC with fluorescence detection; format: in vivo; details: mice 7 days after icv Aβ 4 µM, sublingual AKBA 5 mg/kg 30 min earlier
Method: as §1, §2, §3

kynurenine (KYN) = test: Kynurenine quantification in PFC and HIPP by HPLC with electrochemical detection; format: in vivo; details: mice 7 days after icv Aβ 4 µM, sublingual AKBA 5 mg/kg 30 min earlier
Method: as §1, §2
(§4) 5-HT, noradrenaline (NA), and KYN levels were measured in the PFC and HIPP of mice by HPLC coupled with an electrochemical detector (Ultimate ECD, Thermo Scientific Dionex, Milan, Italy) as already reported. Separation was performed by a LC18 reverse phase column (Kinetex, 150 mm × 3.0 mm, ODS 5 μm; Phenomenex, Castel Maggiore-Bologna, Italy). The detection was accomplished by a thin layer amperometric cell (Thermo Scientific Dionex, Milan, Italy) with a 5 mm diameter glassy carbon electrode at a working potential of 400 mV (5-HT and NA) or 0.750 mV (KYN) vs. Pd. The mobile phase consisted of an aqueous buffer containing 75 mM NaH2PO4, 1.7 mM octane sulfonic acid, 0.3 mM EDTA, and acetonitrile 10%, buffered at pH 3.0. The flow rate was kept at 0.7 mL·min-1 by an isocratic pump (Shimadzu LC-10 AD, Kyoto, Japan). Data acquisition and integration were performed by using Chromeleon software (version 6.80, Thermo Scientific Dionex, Milan, Italy). GLU concentrations were determined by HPLC coupled with fluorescence detection (emission length 460 nm; excitation length 340 nm), as previously published. Analyses were carried out using an LC18 reverse phase column (Kinetex, 150 mm × 3.0 mm, ODS 5 μm; Phenomenex, Castel Maggiore, Bologna, Italy) and detection was accomplished by pre-column derivatization with ophthalaldehyde/mercaptopropionic acid. The mobile phase consisted of a 50 mM sodium acetate buffer, at pH 6.95, with gradient methanol increasing linearly from 2 to 30% (v/v) over a 40 min run. […] Results were analyzed by Borwin software (version 1.50; Jasco, Cremella, Italy) and the amino acid concentration was expressed as µM. All data were normalized for total area weight and were expressed as concentration/mg of tissue.

5-HT = 5-HT quantification in PFC and HIPP by HPLC with electrochemical detection; format: in vivo; details: mice 7 days after icv Aβ 4 µM, sublingual AKBA 5 mg/kg 30 min earlier
Method: as §1, §2, §4

GFAP = test: Western blotting quantification of GFAP in PFC and HIPP; format: in vivo; details: mice 7 days after icv Aβ 4 µM, sublingual AKBA 5 mg/kg 30 min earlier
Method: as §1, §2
(§5) The total amount of proteins was measured in homogenates by using Pierce BCA Assay (Thermo Fisher Scientific, Cleveland, OH, USA). Forty µg of the total lysate protein were separated by SDS-PAGE precast gels (Bio-Rad Laboratories Inc., Segrate (MI), Italy), transferred onto nitrocellulose membranes (Bio-Rad Laboratories Inc, Segrate (MI), Italy) and then blocked for 1 h in blocking buffer (SigmaAldrich, Milan, Italy). Rabbit polyclonal antibody against GFAP (Dako Products, USA; 1:2000), rabbit monoclonal antibody against CD11b (Abcam, Cambridge, MA, USA; ab133357, 1:1000) and mouse monoclonal antibody against NF-kB p65 (Santa Cruz Biotechnology, Dallas, Texas, USA; 1:2000) were used to incubate the membranes overnight at 4 °C. After HRP-conjugated specific antibody incubation, ECL reagent (Bio-Rad Laboratories Inc., Segrate (MI), Italy) was added to the immune complex and chemiluminescence was detected by ChemiDoc MP system (Bio-Rad Laboratories Inc., Segrate (MI), Italy). Optical densities of the bands were measured using ImageJ software (http://rsb.info.nih.gov/ij/ accessed on 15 March 2021) and normalized against bands relative to β-actin (1:5000, Abcam, Cambridge, UK).

CD11b = test: Western blotting quantification of CD11b in PFC and HIPP; format: in vivo; details: mice 7 days after icv Aβ 4 µM, sublingual AKBA 5 mg/kg 30 min earlier
Method: as §1, §2, §5

NF-kB p65 = test: Western blotting quantification of NF-kB p65 in PFC and HIPP; format: in vivo; details: mice 7 days after icv Aβ 4 µM, sublingual AKBA 5 mg/kg 30 min earlier
Method: as §1, §2, §5

Aβ-treated rats = system: Aβ-treated rats; design: method as in PMID 28499898; details: acute treatment; cited from earlier work
[3] = system: depressive-like behavior induced by Aβ; details: through the increased levels of NA; no reference given; cited from earlier work

Aβ: soluble amyloid beta 1-42 peptide (Tocris), injected icv at 4 µM to evoke a depressive-like phenotype [reference compound]
Latency to leak in the splash test (Aβ-treated mice [1]): significant increase in latency to leak | Time spent performing self-care in the splash test (Aβ-treated mice [1]): reduction in time spent performing self-care | Immobility time in the tail suspension test (Aβ-treated mice [2]): significant increase in the immobility time | NA levels in the HIPP (noradrenaline (NA)): significant increase in catecholamine levels | GLU levels in the HIPP (glutamate (GLU); HIPP): significantly increased hippocampal GLU levels | GLU levels in the PFC (glutamate (GLU); PFC): increased GLU levels compared to SHAM mice | KYN levels in the HIPP (kynurenine (KYN); HIPP): increase in KYN levels induced by the peptide | KYN levels in the PFC (kynurenine (KYN); PFC): significant increase in cortical KYN levels | 5-HT levels in the HIPP (5-HT; HIPP): no differences among experimental groups | 5-HT levels in the PFC (5-HT; PFC): significant decrease in PFC | GFAP levels in the HIPP (optical density normalized to actin) (GFAP; HIPP): significant increase in hippocampal GFAP levels | GFAP levels in the PFC (optical density normalized to actin) (GFAP; PFC): significant increase in GFAP levels | CD11b levels in the HIPP (optical density normalized to actin) (CD11b; HIPP): significant enhanced hippocampal levels | CD11b content in the PFC (optical density normalized to actin) (CD11b; PFC): no differences were found among experimental groups | NF-kB p65 content in the HIPP (optical density normalized to actin) (NF-kB p65; HIPP): significantly increased the levels of this transcription factor | NF-kB p65 levels in the PFC (optical density normalized to actin) (NF-kB p65; PFC): significantly increased cortical NF-kB levels

CNC1(c2ccccc2Cl)CCCCC1=O (stereo not drawn) [ketamine]
Pro-depressive-like effect of Aβ in rats (Aβ-treated rats): able to revert

CNCCC(Oc1ccc(C(F)(F)F)cc1)c1ccccc1 (stereo not drawn) [fluoxetine]
Depressive-like behavior induced by Aβ [3]: reduced the depressive-like behavior
